From patent US11767564B2, “Use of SDHA as a prognostic marker and therapeutic target in uveal melanoma” (Board of Regents, The University of Texas System, priority 2017, dated 2023)

Tests used:
[1] = tested on: monosomy 3 and disomy 3 cells; assay: Percent cell survival with SDHA and/or MIF inhibitors; type: cell-based; conditions: simultaneous 20 nM SDHA siRNA and 10 or 25 μM ISO-1; both cell lines (monosomy 3, disomy 3); FIG. 7B
Description: FIGS. 7A-7B: (FIG. 7A) Survival rate of uveal melanoma predicted using TCGA data. SDHA and MIF expression both above median is associated with lowest survival rate. SDHA and MIF both below median is associated with highest survival rate. SDHA below median and MIF above median expression is associated with the second lowest survival rate (p<0.001). (FIG. 7B) In vitro validation of association of SDHA and MIF expression with uveal melanoma cell survival.
Accordingly, the survival rate of uveal melanoma was predicted using TCGA data of SDHA and/or MIF expression. SDHA and MIF expression both above median was associated with lowest survival rate (FIG. 7A). On the other hand, SDHA and MIF both below median was associated with highest survival rate. Thus, both SDHA and MIF expression correlate with survival rate of uveal melanoma patients and may be used for prognosis. The association of SDHA and MID with uveal melanoma survival rate was validated by measuring percent cell survival in monosomy 3 and disomy 3 cells treated with SHDA and/or MIF inhibitors. SDHA was inhibited by 20 nM siRNA and MIF was inhibited by 10 or 25 μM ISO-1.

[2] = tested on: monosomy 3 uveal melanoma cell lines; assay: Cell survival analysis with OXPHOS inhibitor IACS-10759; type: cell-based
Procedure: Cell survival analysis with monosomy and disomy 3 uveal melanoma cells in presence and absence of oxidative phosphorylation (OXPHOS) inhibitor, IACS-10759, was performed. Cells were cultured under ambient oxygen or 1% oxygen. Mitotracker Red dye staining was used to assay the extent of active mitochondria in monosomy 3 and disomy 3 cells. The percent cell survival of uveal melanoma cells treated with increasing concentrations of OXPHOS inhibitor, IACS-10759, was determined.

SMILES | percent cell survival [1] | percent cell survival, resistance to inhibitor ([2]; monosomy 3 lines under hypoxic conditions (1% oxygen) or in galactose media) | percent cell survival, resistance to inhibitor ([2]; three monosomy 3 UM cell lines compared to three lines with normal chromosome 3 copy number, increasing concentrations)
COC(=O)CC1CC(c2ccc(O)cc2)=NO1 (stereo not drawn) [ISO-1] | highest decrease in percent cell survival | – | –
Cc1nc(-c2nc(-c3ccc(OC(F)(F)F)cc3)no2)nn1Cc1cccc(N2CCC(S(C)(=O)=O)CC2)c1 [IACS-10759] | – | resistance diminishes | more resistant to IACS-10759
